According to paper PMC9756341 (Journal of the American Chemical Society, 2022):
“And” between values parts separate entries of the source, which are not always exact repeats. Equal values may be shown once.

Experiments:
[1] = biological target: T1, urokinase plasminogen activator (uPA) (Homo sapiens, UniProt P00749); test: Enzyme kinetics to calculate kobs/I, uPA; type: biochemical; details: ratio of kobs/I
T1 construct: purchased BioTechne 1310-SE
Experimental: (§1) Reagents were obtained from VWR, Sigma Aldrich, Sartorius, Fluorochem, AGTC, Novabiochem, TCI, Alfa Aesar, Iris Biotech, Thermofisher and Bachem. […]
(§2) (Code 7449-SE) and KLK8 (Code 2025-SE) were obtained from BioTechne. KLK6 was obtained from the group of Aubry Miller (DKFZ) and KLK7 was obtained from the group of Judith Clements (QUT).
(§3) The manufacturer’s recommended buffers were used with uPA and tPA but not KLK8. The KLK6 assay buffer was as follows: 50 mM Tris 150 mM NaCl, 1 mM EDTA, 0.05% Tween20, pH 7.5. The KLK7/8 buffer was as follows: 100 mM Na2PO4, 0.01% Tween20, pH 8.5. Fluorescence measurements were measured using an Envision plate reader. Fluorescence data was processed using Graphpad Prism 8. […]
(§4) 2-chlorotrityl chloride resin. […]

[2] = system: BxPC-3 cells; details: BxPC-3 cells (no active KLK6), 2 μM, 24 h, relative to DMSO
Experimental: (§5) Next, the effect of KLK6 inhibition on migration and invasion of Capan-2 cells was assessed using a Boyden chamber assay.
(§6) (13 µL per condition). Control conditions included puromycin (100 µg/mL), DMSO only, Sytox green only or DMSO + Sytox green. The final inhibitor concentrations ranged from 2 µM to 125 nM. The cells were placed into an Incucyte with the incubator set at 37 °C and 5% CO2. Phase and green fluorescence were analysed every 4 h for 5 days.
(§7) Invasion/migration assays. Cell invasion was measured using Corning Fluoroblok inserts following a modified procedure11. Fluoroblok inserts were placed into the wells of a 24-well plate. Matrigel was suspended to 300 µg/mL in coating buffer (0.01M Tris, 0.7% NaCl, pH 8). The matrigel suspension (100 µL) was added into the Fluoroblok insert and the plate was left at 37 °C for 2 h. A migration control (with no matrigel) was also included. Cells were trypsinised and resuspended in serum-free DMEM.
(§8) The leftover buffer in the chambers was decanted and 500 µL of cells (100,000 per well) were seeded into the apical chamber of the insert. DMEM with 10% FBS (750 µL) was added into the basal chamber as a chemoattractant. The plate was incubated at 37 °C and 5% CO2 for 24 h. The chambers were removed and placed into a new 24-well plate containing 50 µM of CellTracker CMHC dye in HBSS. The cells were stained for 0.5 h and the chamber was removed and placed into the previous plate containing DMEM with 10% FBS. The cells were imaged for blue fluorescence (ex/em = 375/460) using a Celena S inverted fluorescence microscope. Percentage invasion was calculated by quantifying the cell area

[3] = system: Capan-2 cells; details: Capan-2 cells (active KLK6), 2 μM, 24 h, relative to DMSO
Experimental: as §5, §6, §7, §8

[4] = biological target: T2, KLK8 (Homo sapiens, UniProt O60259); test: Enzyme kinetics to calculate kobs/I, KLK8; type: biochemical
T2 construct: Active recombinant FGFBP1 (Code 1593-FB), HSPG2 (Code 2364-ER), uPA (Code 1310-SE), tPA (Code 7449-SE) and KLK8 (Code 2025-SE) were obtained from BioTechne; purchased BioTechne 2025-SE
T2 sequence (O60259 33-260): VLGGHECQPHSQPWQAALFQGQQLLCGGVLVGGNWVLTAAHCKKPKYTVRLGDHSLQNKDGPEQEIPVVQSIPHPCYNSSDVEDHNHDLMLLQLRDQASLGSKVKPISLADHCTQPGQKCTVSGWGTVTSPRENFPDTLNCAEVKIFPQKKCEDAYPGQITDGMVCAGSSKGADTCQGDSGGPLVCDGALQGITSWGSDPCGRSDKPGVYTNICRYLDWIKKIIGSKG

[5] = system: intracellular proteases of Capan-2 cells; details: live Capan-2 cells or cell lysate, 2 h, NeutrAvidin-HRP blot
Experimental: S12. Probe treatment in live Capan-2 cells and cell lysate
Figure S12. Capan-2 cells were grown to 80% confluency, followed by the addition of bABP 17 or FP-biotin for 2 h. Cells were lysed, boiled with Laemmli buffer and analysed using a NeutrAivdin-HRP western blot (in cell blot). Standard Capan-2 lysate was also treated with the same amounts of bABP 17 and FP-biotin, followed by the same analysis (in lysate blot).
(1 picture or pasted object on this page, not shown here)

[6] = biological target: T3, KLK7 (Homo sapiens, UniProt P49862); test: Enzyme kinetics to calculate kobs/I, KLK7; type: biochemical
T3 construct: gift from the group of Judith Clements (QUT)
Experimental: as §1, §2, §3, §4

[7] = system: Capan-2 cells; details: 0.13 to 2 μM, Incucyte live cell imaging every 4 h for 5 days, serum-free DMEM
Experimental: Incucyte assays for proliferation and toxicity
Proliferation was quantified using the Incucyte software by measuring percentage confluency. Sytox
green was used as a marker for cell death. Cell death was quantified by measuring total green
fluorescence of each well.
Incucyte (proliferation and toxicity) assays. Capan-2 cells were seeded in a sterile 96 well plate
(10,000 cells per well). The outermost wells were left empty to mitigate edge effects. Cells were grown
in growth media (10% FBS) overnight to adhere. The next day, the media was replaced with serum-free
DMEM (117 µL) containing Sytox green (250 nM) or a DMSO control.

[8] = system: KLK6; test: Enzyme kinetics to calculate kobs/I, KLK6; type: biochemical, human; details: KLK6 1.5 nM, fluorogenic substrate 22 5 µM, 50 mM Tris 150 mM NaCl 1 mM EDTA 0.05% Tween20 pH 7.5, room temperature, read every 30 s for 30 min, ex/em 380/440 nm, pseudo first order kinetics, corrected by (1 + [S]/KM), triplicates
[9] = system: recombinant tPA, uPA, or KLK6; details: 2 h incubation, then fABP 21 for 1 h, in-gel fluorescence
[10] = biological target: T4, tissue plasminogen activator (tPA) (Homo sapiens, UniProt P00750); test: Enzyme kinetics to calculate kobs/I, tPA; type: biochemical; details: ratio of kobs/I
T4 construct: purchased BioTechne 7449-SE
Experimental: as §1, §2, §3, §4

[11] = system: Capan-2 conditioned media proteome; details: 2 μM, 1 h, NeutrAvidin enrichment, LC–MS/MS, triplicate
Experimental: Pulldown experiments (LC-MS/MS) Conditioned media was diluted with PBS to exactly 1 mg/mL.
300 µg of total protein was used per replicate. Each condition was performed in triplicate. The inhibitor
or DMSO control (1:100 dilution) was incubated with the media at RT for 2 h with a gentle agitation.
for 1 h. The proteins were precipitated using the MeOH/H2O/CHCl3 method. The pellet was washed
twice with MeOH and dried in air for 5 min. The proteins were resuspended in 2% SDS, 50 mM HEPES
in H2O (pH 8) to a concentration of 10 mg/mL. 50 mM HEPES was added to gradually dilute the protein
back to 1 mg/mL and the samples were centrifuged (17,000 g, 5 min). A 1:1 mixture of NeutrAvidin
agarose resin (15 µL per 300 µg protein) and control agarose resin (15 µL per 300 µg protein) was
prepared and washed with 0.2% SDS, 50 mM HEPES. The test samples were added into the resin and
the mixture was shaken at RT for 2 h. The supernatant was removed, and the beads were washed with
3 × 0.2% SDS, 50 mM HEPES and 3 × 50 mM HEPES. The beads were resuspended in 50 mM HEPES
(50 µL). TCEP was added to a final concentration of 5 mM (1:20 dilution). Chloroacetamide was added
to a final concentration of 10 mM (1:20 dilution). The mixture was shaken at RT for 30 min. To digest
the peptides off the resin, 0.5 µL of trypsin (0.2 mg/mL stock) was added into each sample and the
samples were shaken at 37 °C overnight. […]

[12] = system: endogenous active KLK6; details: Capan-2 conditioned media, streptavidin pulldown, KLK6 western blot
Experimental: Conditioned media was incubated with bABP 17 (10 μM) or DMSO for 2 h, and labeled proteins enriched on magnetic streptavidin-loaded beads, eluted, and analyzed by western blot against a KLK6 antibody.
Cell culture. Cells were cultured in their recommended culture media supplemented with 10% (v/v)
foetal bovine serum at 37 °C and 5% CO2.
Preparation of conditioned media. Cells were grown in standard growth media to 80% confluency in
a T175 flask. The medium was removed, and the cells were washed with serum-free, phenol-red free
RPMI. The cells were incubated with the same RPMI for 2 h. The medium was replaced once again
with serum-free, phenol-red free RPMI and the cells were incubated for 48 h. The condition medium
was collected and filtered through a 0.2 µm syringe filter. The medium was concentrated (25 mL to
0.75 mL) using a 3 kDa Mw cutoff spin filter to a final concentration of around 1 mg/mL. The protein
concentration was measured using a BioRad DCTM protein assay.
Pulldown experiments (western blot). Conditioned media was diluted with PBS to exactly 1 mg/mL.
200 µg of total protein was used per condition. The ABP or DMSO was added at a 1:100 dilution and
the samples were shaken at RT for 1 h. The proteins were precipitated using the MeOH/H2O/CHCl3
method. The pellet was washed twice with MeOH and dried in air for 5 min. The protein was
resuspended in 2% SDS in PBS to a concentration of 10 mg/mL. PBS was added to gradually dilute
the protein back to 1 mg/mL and the samples were centrifuged (17,000 g, 5 min). 5 µg of protein was
set aside as the “before pulldown” samples. Magnetic streptavidin beads were washed three times with
PBS. The rest of the protein was added into the beads and shaken at RT for 2 h. 5 µg of the supernatant
was set aside for analysis, while the rest was discarded. The beads were washed three times with 1%
SDS in PBS. […]
were boiled at 95 °C for 5 min. The proteins were analysed via SDS-PAGE and western blot analysis. […]
10 min, followed by 180 V for 60 min. Gels were then taken for western blot or in-gel fluorescence. […]

[13] = Fluoroblok insert without Matrigel
[14] = Matrigel-coated Fluoroblok insert

T3 sequence (P49862 30-253): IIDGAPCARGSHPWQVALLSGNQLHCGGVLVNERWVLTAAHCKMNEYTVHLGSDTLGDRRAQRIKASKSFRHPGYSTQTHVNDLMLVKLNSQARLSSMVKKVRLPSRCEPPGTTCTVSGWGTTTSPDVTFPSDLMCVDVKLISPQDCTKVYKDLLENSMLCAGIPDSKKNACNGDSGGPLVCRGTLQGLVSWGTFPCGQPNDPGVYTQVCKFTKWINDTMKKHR
T4 sequence (P00750 36-562): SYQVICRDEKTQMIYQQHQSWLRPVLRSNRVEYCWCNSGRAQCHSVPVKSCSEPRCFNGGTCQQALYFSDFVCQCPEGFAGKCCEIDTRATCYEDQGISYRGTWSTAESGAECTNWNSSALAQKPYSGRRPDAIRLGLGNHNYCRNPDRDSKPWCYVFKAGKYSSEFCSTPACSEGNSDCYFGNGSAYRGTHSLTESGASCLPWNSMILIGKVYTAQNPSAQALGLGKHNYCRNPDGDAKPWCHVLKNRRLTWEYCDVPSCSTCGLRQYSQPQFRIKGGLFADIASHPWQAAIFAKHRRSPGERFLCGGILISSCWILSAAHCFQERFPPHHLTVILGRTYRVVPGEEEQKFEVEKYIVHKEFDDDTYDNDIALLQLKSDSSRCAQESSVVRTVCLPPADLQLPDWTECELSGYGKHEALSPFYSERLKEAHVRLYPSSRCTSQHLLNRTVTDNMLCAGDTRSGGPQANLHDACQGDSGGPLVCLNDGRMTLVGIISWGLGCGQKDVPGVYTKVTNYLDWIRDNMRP

Substance: biotin–Ahx–DPhe–Ser(Z)–Dht–ArgPP [compound 17]
- selectivity for KLK6 over uPA [1]: > 600 fold
- effect on migration [2, 13]: no effect
- effect on invasion [2, 14]: no effect
- effect on migration [3, 13]: reduced
- effect on invasion [3, 14]: reduced
- KLK8 kobs/I ([4]; KLK8 1 nM, Boc-VPR-AMC 30 µM, 100 mM Na2PO4 0.01% Tween20 pH 8.5, room temperature, 30 min, pseudo first order kinetics, triplicates): 140 M^–1 s^–1 and 140 ± 5 M^–1 s^–1
- selectivity for KLK6 over KLK8 ([4]; ratio of kobs/I): > 70 fold
- labeling of intracellular proteases [5]: did not label any intracellular protease
- KLK7 kobs/I ([6]; KLK7 34 nM, substrate 24 5 µM, 100 mM Na2PO4 0.01% Tween20 pH 8.5, room temperature, 30 min, pseudo first order kinetics, triplicates): 350 M⁻¹ s⁻¹ and 350 ± 90 M⁻¹ s⁻¹
- selectivity for KLK6 over KLK7 ([6]; ratio of kobs/I): > 30 fold
- effect on proliferation (percentage confluency) [7]: no effect
- KLK6 kobs/I [8]: 11000 M^–1 s^–1 and 11000 ± 300 M^–1 s^–1
- KLK6 kobs/I ([8]; listed as IMP-2352): 11,000 M^–1 s^–1
- inhibition of recombinant KLK6 versus tPA and uPA [9]: selectively inhibit KLK6 over the two off-targets
- selectivity for KLK6 over tPA [10]: > 600 fold
- proteases labeled/enriched over DMSO control [11]: KLK6, along with two off-targets, uPA and tPA
- labeling of endogenous KLK6 [12]: efficiently labels endogenous active KLK6
- lowest probe concentration detecting active KLK6 ([12]; dose-dependent): 50 nM
